Assay [1] has as its target T1, lipase from porcine pancreas, TYPE II (Sus scrofa, UniProt P00591).
T1 construct: lipase from porcine pancreas, TYPE II; purchased Sigma-Aldrich; host or cells: porcine pancreas (tissue preparation)
T1 sequence (P00591 1-450): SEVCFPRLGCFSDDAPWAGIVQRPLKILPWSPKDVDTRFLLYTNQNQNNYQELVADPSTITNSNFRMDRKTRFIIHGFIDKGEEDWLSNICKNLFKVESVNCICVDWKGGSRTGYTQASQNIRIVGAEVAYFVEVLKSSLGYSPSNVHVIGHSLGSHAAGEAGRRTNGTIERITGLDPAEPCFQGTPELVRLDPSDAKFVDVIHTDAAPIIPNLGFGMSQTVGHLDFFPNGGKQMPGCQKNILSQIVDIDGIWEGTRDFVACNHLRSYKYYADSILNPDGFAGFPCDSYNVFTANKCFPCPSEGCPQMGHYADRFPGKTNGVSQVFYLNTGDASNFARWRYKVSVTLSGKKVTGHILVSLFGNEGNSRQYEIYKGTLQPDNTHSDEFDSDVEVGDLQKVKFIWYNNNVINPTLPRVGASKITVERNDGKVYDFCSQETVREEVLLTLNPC
In words: pancreatic lipase inhibitory activity (Lipase Kit S, BALB substrate). The assay is classed as biochemical. The conditions noted are these: for pancreatic lipase inhibitory activity (in words): in vitro, 0.45, 0.90 and 4.5 mM. The procedure: The pancreatic lipase activity of each test sample was measured by a modified method using a commercially available kit (Lipase Kit S, Dainippon Pharmaceutical). The purities of test samples were confirmed by HPLC analysis (Figure S6 in Supplementary Materials). Cetilistat was used as a positive control at 0.1, 1.0, and 10 μM. Test sample was dissolved in EtOH–H2O (1:1) and diluted to concentrations of 0.45, 0.90, and 4.5 mM, respectively. Lipase (lipase from porcine pancreas, TYPE II, 100–500 units/mg) was purchased from Sigma-Aldrich. Briefly, test sample was mixed with enzyme buffer, and incubated for 5 min at 30 °C. After incubation, 2,3-dimercapto-1-propanol tributyrate (BALB) as substrate was added and the enzyme reaction was proceeded for 30 min at 30 °C. Lipase activity was determined by measuring the absorbance of the resulting 5-thio-2-nitrobenzoate anion at 412 nm using a microplate reader. The inhibition rate was calculated by the following formula: Inhibition rate (%) = [1 − (ΔAsample − ΔAblank)/(ΔAcontrol − ΔAblank)] × 100. The inhibitory concentration (IC50) was calculated by log-Probit analysis.

For the next assay, the system named is ddY mice. The experiment in a line: serum TG levels in intralipid (soybean oil)-loaded mice. The conditions noted are these: for serum TG levels: 15 min before intralipid loading, 120 min after intralipid, mean ± S.E.M., n = 5. The assay is classed as in vivo. On the procedure:
Male ddY mice, 5 weeks old, were purchased from Japan Laboratory Animals and maintained in the animal facility of the Tokyo University of Pharmacy and Life Sciences. The animals were housed in cages under controlled temperature (23 ± 2 °C) and a 12 h light-dark cycle. The mice were allowed free access to breeding food and water. All experiments were approved by the Tokyo University of Pharmacy and Life Sciences Animal Use Committee (approval number: P17-84, date of approval: 24 April 2017).
After 5 weeks, mice were fasted overnight and randomly divided into five groups (n = 5). The body weight of each mouse was measured (24.0–30.7 g/body). 0.5% Carboxymethyl cellulose (CMC; Wako Pure Chemical Industries), cetilistat (Tokyo Kasei, purity > 98.0%; 180 mg/kg), or compound 6 (150 or 300 mg/kg) were prepared for test samples and the intralipid (soybean oil 20% emulsion, 20 mL/kg, Sigma-Aldrich) was used for the high-fat diet. Single dose of 0.5% CMC, cetilistat, and compound 6 (150 or 300 mg/kg) were orally administered to mice in each group (n = 5) 15 min before the intralipid loading. Blood samples were collected from the abdominal vena cava 120 min after the intralipid-loaded treatment and centrifuged (700× g for 10 min) to obtain serum samples. The TG levels in serum were measured using a commercially available kit (Wako Triglyceride E-Test kit, Wako Pure Chemical Industries).

The subject of assay [2] is cyclic adenosine monophosphatase (cAMP) phosphodiesterase. On the set-up: method as in PMID 8149459, doi:10.1246/cl.1992.1863. The conditions noted are these: cited from earlier work.
In another assay the test system is mice. On the set-up: method as in earlier work. The settings on record: oral administration; cited from earlier work.
Another assay concerns pancreatic lipase. On the set-up: method as in PMID 25389058. The settings on record: cited from earlier work.
Where [3] appears, read: mean ± S.E.M. of three experiments in triplicate, tested at 0.45, 0.90, 4.5 mM.

Usually IC50 stands for the concentration that gives 50% inhibition. A lower IC50 goes with higher potency. For `C[C@@H]1O[C@@H](O[C@H]2[C@H](O[C@H]3[C@H](OC[C@H]4O[C@@H](O[C@H]5CC[C@]6(C)C7=C(CC[C@H]6[C@@]5(C)CO)[C@]5(C)CC[C@@]6(OC(=O)C[C@H]6C)[C@@]5(C)CC7)[C@H](O)[C@@H](O)[C@@H]4O)OC[C@H](O)[C@@H]3O)O[C@H](CO)[C@@H](O)[C@@H]2O[C@@H]2O[C@H](CO)[C@@H](O)[C@H](O)[C@H]2O)[C@H](O)[C@H](O)[C@H]1O` [Compound 11, scillanostaside G], the “pancreatic lipase inhibitory activity (in words)” value in assay [1] is given as “inhibited the pancreatic lipase activity in an inverted dose-dependent manner”. In assay [1] (setting [3]), this compound showed an IC50 of more than 4500 µM. Turning to `CCCCCCCCCCCCCCCCOc1nc2ccc(C)cc2c(=O)o1` [Cetilistat, reference compound], in assay [1] (positive control, tested at 0.1, 1.0, 10 μM, mean ± S.E.M.), the IC50 turned out to be 1.43 ± 0.052 µM. Also, the “serum TG levels” value in the assay on ddY mice (180 mg/kg oral) amounted to 130.2 ± 23.4 mg/dL. The compound `CCC(=O)[C@@H]1C[C@@H](C)[C@]2(CC[C@@]3(C)C4=C(CC[C@@]32C)[C@@]2(C)CC[C@H](O[C@@H]3O[C@H](CO[C@@H]5OC[C@H](O)[C@H](O)[C@H]5O[C@@H]5O[C@H](CO)[C@@H](O)[C@H](O[C@@H]6O[C@H](CO)[C@@H](O)[C@H](O)[C@H]6O)[C@H]5O[C@@H]5O[C@@H](C)[C@H](O)[C@@H](O)[C@H]5O)[C@@H](O)[C@H](O)[C@H]3O)C(CO)(CO)[C@@H]2CC4)O1` [Compound 10, 15-deoxy-30-hydroxyeucosterol3β-[O-β-D-glucopyranosyl-(1→3)-O-[α-L-rhamnopyranosyl-(1→2)]-β-D-glucopyranosyl-(1→2)-O-α-L-arabinopyranosyl-(1→6)-O-β-D-glucopyranoside]] gave an IC50 in assay [1] (setting [3]) of 1130 ± 62 µM. On the same count and under the same terms, the same measure for `CC1CC2(CC(C)C3(CCC4(C)C5=C(CCC43C)C3(C)CCC(OC4OC(COC6OCC(O)C(O)C6OC6OC(CO)C(O)C(O)C6OC6OC(C)C(O)C(O)C6O)C(O)C(O)C4O)C(CO)(CO)C3CC5)O2)OC1=O` [Compound 7, (23S,25R)-3β,30,31-trihydroxy-17α,23-epoxy-5α-lanost-5-en-23,26-olactone3-O-[O-α-L-rhamno-pyranosyl-(1→2)-O-β-D-glucopyranosyl-(1→2)-O-α-L-arabinopyranosyl-(1→6)-O-β-D-glucopyranoside]]: 1100 ± 15 µM. Turning to `CC1CC2(CC(C)C3(CCC4(C)C5=C(CCC43C)C3(C)CCC(OC4OC(COC6OCC(O)C(O)C6OC6OC(CO)C(O)C(O)C6OC6OC(C)C(O)C(O)C6O)C(O)C(O)C4O)C(C)(CO)C3CC5)O2)OC1=O` [Compound 6, (23S,25R)-3β,31-dihydroxy-17α,23-epoxy-5α-lanost-8-en-23,26-olactone3β-O-[O-α-L-rhamnopyranosyl-(1→2)-O-β-D-gluco-pyranosyl-(1→2)-O-α-L-arabinopyranosyl-(1→6)-O-β-D-glucopyranoside]], the “pancreatic lipase inhibitory activity (in words)” value in assay [1] was “significant pancreatic lipase inhibitory activity in a concentration-dependent manner”. The same compound came in with an IC50 in assay [1] (setting [3]) of 810 ± 29 µM. Moreover, the “serum TG levels” value with ddY mice (300 mg/kg single oral dose) was 90.9 ± 16.2 mg/dL. For the same compound, the “effect on serum triglyceride levels (in words)” value in the assay with ddY mice (oral, 150 or 300 mg/kg, soybean oil-loaded mice) is on record as “reduced serum triglyceride levels in a dose-dependent manner”.

For scillasaponin B, the “cAMP phosphodiesterase inhibitory activity (in words)” value in assay [2] was “show cyclic adenosine monophosphatase (cAMP) phosphodiesterase inhibitory activity”. With `COC(=O)/C(C)=C/[C@H]1[C@@H](OC)O[C@H]2C[C@@]3(C)C4=C(CC[C@]3(C)[C@@]2(O)[C@@H]1C)[C@@]1(C)CC[C@H](O[C@@H]2O[C@H](CO)[C@@H](O)[C@H](O)[C@H]2O[C@@H]2O[C@H](CO)[C@@H](O)[C@H](O)[C@H]2O[C@@H]2O[C@@H](C)[C@H](O)[C@@H](O)[C@H]2O)C(C)(C)[C@@H]1CC4` [Compound 3, 23β-methyl-peruvianoside A], in assay [1], the “pancreatic lipase inhibitory activity (in words)” value is “significant pancreatic lipase inhibitory activity in a concentration-dependent manner”. In assay [1] (setting [3]), this compound returned an IC50 of 590 ± 20 µM. For the compound `CCC(=O)[C@@H]1C[C@@H](C)[C@]2(CC[C@@]3(C)C4=C(CC[C@@]32C)[C@@]2(C)CC[C@H](O[C@@H]3O[C@H](CO[C@@H]5OC[C@H](O)[C@H](O)[C@H]5O[C@@H]5O[C@H](CO)[C@@H](O)[C@H](O[C@@H]6O[C@H](CO)[C@@H](O)[C@H](O)[C@H]6O)[C@H]5O[C@@H]5O[C@@H](C)[C@H](O)[C@@H](O)[C@H]5O)[C@@H](O)[C@H](O)[C@H]3O)[C@](C)(CO)[C@@H]2CC4)O1` [Compound 9, 15-deoxy-eucosterol3β-[O-β-D-glucopyranosyl-(1→3)-O-[α-L-rhamnopyranosyl-(1→2)]-β-D-glucopyranosyl-(1→2)-O-α-L-arabinopyranosyl-(1→6)-O-β-D-glucopyranoside]], in assay [1] (setting [3]), the IC50 worked out at 910 ± 23 µM. On to `COC(=O)/C(C)=C/[C@H]1[C@H](OC)O[C@H]2C[C@@]3(C)C4=C(CC[C@]3(C)[C@@]2(O)[C@@H]1C)[C@@]1(C)CC[C@H](O[C@@H]2O[C@H](CO)[C@@H](O)[C@H](O)[C@H]2O[C@@H]2O[C@H](CO)[C@@H](O)[C@H](O)[C@H]2O[C@@H]2O[C@@H](C)[C@H](O)[C@@H](O)[C@H]2O)C(C)(C)[C@@H]1CC4` [Compound 2, 23α-methyl-peruvianoside A], for which the “pancreatic lipase inhibitory activity (in words)” value in assay [1] is “significant pancreatic lipase inhibitory activity in a concentration-dependent manner”. Also, in assay [1] (setting [3]), half-maximal inhibition (IC50) required 840 ± 29 µM.

`COC(=O)/C(C)=C/[C@H]1[C@H](O)O[C@H]2C[C@@]3(C)C4=C(CC[C@]3(C)[C@@]2(O)[C@@H]1C)[C@@]1(C)CC[C@H](O[C@@H]2O[C@H](CO)[C@@H](O)[C@H](O)[C@H]2O[C@@H]2O[C@H](CO)[C@@H](O)[C@H](O)[C@H]2O[C@@H]2O[C@@H](C)[C@H](O)[C@@H](O)[C@H]2O)[C@](C)(CO)[C@@H]1CC4` [Compound 5, peruvianoside B] yielded an IC50 in assay [1] (setting [3]) of 1400 ± 35 µM. Consider `C=C1C(O)CCC2C1(C)CCC1C2(C)CCC2(C)C3C(C(C)C)CCC3(C)CCC12C` (stereo not drawn) [cymbopogonol], for which the “effect on serum TG levels (in words)” value in the assay on mice is reported as “reduced serum TG levels in mice”.

Compound `COC(=O)/C(C)=C/[C@H]1[C@H](O)O[C@H]2C[C@@]3(C)C4=C(CC[C@]3(C)[C@@]2(O)[C@@H]1C)[C@@]1(C)CC[C@H](O[C@@H]2O[C@H](CO)[C@@H](O)[C@H](O)[C@H]2O[C@@H]2O[C@H](CO)[C@@H](O)[C@H](O)[C@H]2O[C@@H]2O[C@@H](C)[C@H](O)[C@@H](O)[C@H]2O)C(C)(C)[C@@H]1CC4` [Compound 4, peruvianoside A] gave an IC50 in assay [1] (setting [3]) of 1420 ± 40 µM. Further, in assay [2], the “cAMP phosphodiesterase inhibitory activity (in words)” value is reported as “show cyclic adenosine monophosphatase (cAMP) phosphodiesterase inhibitory activity”. As to `CC(C)=CCCC(C(=O)O)C1CCC2(C)C3CCC4C(C)(CCC(O)C4(C)C)C3=CCC12C` (stereo not drawn) [3β-Hydroxylanosta 9,24-dien-21-oic acid], the “pancreatic lipase inhibition (in words)” value in the assay with pancreatic lipase is listed as “inhibit the pancreatic lipase activity”.

The record behind these values is publication PMC7865276, “Chemical Constituents of the Bulbs of Scilla peruviana and Their Pancreatic Lipase Inhibitory Activity” (International Journal of Molecular Sciences, 2021).
